What was measured:
[1] = Drug uptake by dry vs wet (hydrated) Proclear lenses after autoclave; assay type: physicochemical; conditions: for % Δ Dry vs Wet (drug uptake): Proclear lens; for Drug Uptake, Wet Lens: hydrated Proclear lens; for Drug Uptake, Wet Lens / Drug Uptake, Dry Lens: autoclaved, n=3; for Drug Uptake, Dry Lens: non-hydrated Proclear lens
Description: The ability of hydrated and non-hydrated (dry) Proclear lenses to take up olopatadine, ketotifen, and cromolyn was evaluated. At physiological pH, olopatadine is zwitterionic, ketotifen is positively charged, and cromolyn is negatively charged. […] The dry lenses were removed from their original molds, packaged with 3 ml of each drug solution without any intermediate hydration step and autoclaved. For controls, each drug solution was packaged without a lens and autoclaved. After autoclave, the amount of drug in each packaging solution was measured by HPLC.

[2] = test system: Serratia marcescens; assay: Antimicrobial activity of εPLL-packaged Proclear lenses; assay type: cell-based
Description: (§1) For example, hydrated Proclear contact lenses were packaged and autoclaved in PBS having an ionic strength of about 0.2 and comprising 500 ppm εPLL, an antimicrobial peptide. These lenses took up an average of 5 μg of the εPLL/lens. […] Thus, in various examples, the packaging solution has an ionic strength of less than about 0.15, 0.10, or 0.05 as calculated by the equation: […]

[3] = εPLL uptake by hydrated Proclear lenses, packaging solutions of different ionic strength; assay type: physicochemical
Description: as §1

[4] = εPLL uptake by non-hydrated Proclear lenses in different buffers; assay type: physicochemical; conditions: dry Proclear lens, autoclaved, n=3
Description: The uptake and release of εPLL from non-hydrated (i.e. dry) Proclear lenses was evaluated. The εPLL (Chisso Corporation, Tokyo, Japan) was prepared at a concentration of 500 ppm in three different buffers, PBS, TRIS buffered saline (0.023% tris(hydroxymethyl)methylamine, 0.544% trizma hydrochloride, 0.819% NaCl; TBS), or Tris-sorbitol. Lenses were individually packaged, in triplicate, in 1.2 ml of each εPLL preparation and autoclaved. Additionally, vials containing 1.2 ml 500 ppm εPLL in each buffer with no lens (control vials) were also autoclaved. The amounts of εPLL present in the post-autoclave solution of the test lens vials and in the control vial were determined by cationic size exclusion chromatography using a sample injection volume of 5 μl, a Water Acquity UPLC BEH 125 SEC 1.7 μm 4.6×150 mm at room temperature, and a flow rate of 0.4 ml/min using 90% 0.2M NaCl/0.1% TFA in H20: 10% ACN isocratically. The average of the amount of εPLL taken up by each test lens (n=3) was calculated by subtracting the amount of εPLL present in the post-autoclave solution of the test lens vial from the amount of εPLL present in the control vial. Lenses packaged with 500 ppm εPLL in PBS took up an average of 88 μg εPLL. Lenses packaged with 500 ppm εPLL in TBS took up 47 μg εPLL, and lenses packaged with 500 ppm εPLL in Tris-sorbitol took up 208 μg εPLL.

[5] = PSS uptake by hydrated and non-hydrated Proclear lenses; assay type: physicochemical
[6] = high concentration: 250 μg/ml ketotifen, 1000 μg/ml olopatadine, 2000 μg/ml cromolyn
[7] = low concentration: 25 μg/ml ketotifen, 200 μg/ml olopatadine, 400 μg/ml cromolyn
[8] = high concentration: 250 μg/ml ketotifen (borate buffer), 1000 μg/ml olopatadine (PBS), 2000 μg/ml cromolyn (PBS)
[9] = low concentration: 25 μg/ml ketotifen (borate buffer), 200 μg/ml olopatadine (PBS), 400 μg/ml cromolyn (PBS)

Molecule | % Δ Dry vs Wet (drug uptake) [1, 6] [%] | % Δ Dry vs Wet (drug uptake) [1, 7] [%] | Drug Uptake, Wet Lens [1, 8] [µg] | Drug Uptake, Wet Lens [1, 9] [µg] | Drug Uptake, Dry Lens [1, 8] [µg] | Drug Uptake, Dry Lens [1, 9] [µg] | further results
CN(C)CC/C=C1/c2ccccc2COc2ccc(CC(=O)O)cc21 [olopatadine] | 6 | 16 | 202 | 45 | 215 | 52 | –
epsilon polylysine [εPLL] | – | – | – | – | – | – | antimicrobial activity against Serratia marcescens ([2]; Proclear lenses autoclaved in PBS with 500 ppm εPLL): no antimicrobial activity; kill of Serratia marcescens ([2]; Proclear lenses autoclaved in TRIS buffer with 2% sorbitol with εPLL): ~4 log; εPLL uptake (average) ([3]; hydrated Proclear lenses autoclaved in PBS, ionic strength about 0.2, 500 ppm εPLL): 5 μg/lens; εPLL uptake (average) ([3]; hydrated Proclear lenses autoclaved in TRIS buffer with 2% sorbitol, ionic strength about 0.02): about 120 μg/lens; εPLL uptake (average) ([4]; 500 ppm εPLL in PBS): 88 µg; εPLL uptake ([4]; 500 ppm εPLL in TBS): 47 µg; εPLL uptake ([4]; 500 ppm εPLL in Tris-sorbitol): 208 µg
C=Cc1ccc(S(=O)(=O)[O-])cc1.[Na+] [compound 206, styrene sulfonate] | – | – | – | – | – | – | uptake by dry lens compared to wet lens ([5]; Proclear lens): significantly more; % Δ Dry vs Wet (uptake) ([5]; Proclear lens, 0.01 mole/liter PSS, 48 hours): 16%; Uptake, Wet Lens ([5]; hydrated Proclear lens, 0.01 mole/liter PSS, 48 hours, n=3): 92 µg; Uptake, Dry Lens ([5]; non-hydrated Proclear lens, 0.01 mole/liter PSS, 48 hours, n=3): 110 µg
CN1CCC(=C2c3ccccc3CC(=O)c3sccc32)CC1 [ketotifen] | −6 | −17 | 122 | 12 | 115 | 10 | –
